Where two headings read alike, the source gives them in different places.
Key:
HIV-1 = details: RC-101 at pH 7, data not shown
[1] = for detection of RC-101 by LC-MS/MS: frozen HVF (-80°C, 3 months) 1:1, 37°C, nanoLC-SRM MS, qualitative
Method: (§1) The HVF from the Instead Softcup® was removed by centrifugation of the conical tube for 10 min at 5,000 rpm. […] HVF was then removed from the cup and the pH of each HVF sample was measured with Fisher Alkacid pH filter strips (Fisher Scientific). All samples collected on a specific day were pooled to be used for the research studies. If the pH of the individual samples was higher than 5, the sample was not included in the pool but it was stored at -80°C for separate analysis. If the sample contained blood, it was immediately discarded. Samples were prepared as described in Table 1. […] Because of its high viscosity, HVF was measured by weight and not by volume. All solutions were prepared fresh and incubated with HVF (or water) at 37°C for specific periods of time (0, 2, 6, 12, 24, 48, and 72 h), unless specified otherwise. At each time point, the samples were centrifuged at 10,000 rpm for 10 min to separate the supernatant from the epithelial cells as described in the cell processing section. Both parts (supernatant and cells) were stored at -80 ± C until analyzed by LC-MS/MS. To evaluate the influence of freezing the fluid prior to the analysis, the last pool of HVF was divided into two samples: one used fresh (at the time of collection), and the other one stored at -80°C for a 3-month period. After that time period, HVF was thawed and processed for blank and RC-101 solution only, as described in Table 1. HVF samples collected with a high pH value indicative of BV were stored at -80°C as previously mentioned. After confirmation of BV on those fluid samples by Gram stain score, the fluid samples (HVF BV^+) were thawed, pooled, and processed as described in Table 1.
At each time point, the sample was removed from the incubation chamber and centrifuged for 10 min at 10,000 rpm, at 4 ± C to separate the supernatant from cell pellet. Supernatant (100 μL) was added to microcentrifuge filters Ultracel YM-10 Microcon MWCO 10,000 (Millipore Corporation, Bedford, MA), which were pre-washed with Milli Q water to eliminate any trace of propylene glycol from the filters. Samples were centrifuged twice for 15 min at 8,500 rpm, at 4 ± C. The filtrate was collected and frozen at -80 ± C until further analysis. A solution of 3 M urea was added to the cell pellet (1:1 w/w) obtained from the first centrifugation, to lyse the cells. This mixture was vortexed three times for 30 sec, and then centrifuged for 10 min at 10,000 rpm, at 4 ± C. The supernatant obtained from the cell lysate was then added to microcentrifuge filters Ultracel YM-10 Microcon MWCO 10,000 pre-washed with Milli Q water. Samples were centrifuged twice for 15 min at 8,500 rpm, at 4 ± C. The filtrate was collected and frozen at -80 ± C until analysis. […] Samples were thawed and added to PepCleanTM C-18 spin columns (Pierce Biotechnology Inc., Rockford, IL) for desalting, after column conditioning with acetonitrile:water (50:50) and equilibration with 0.1% trifluoroacetic acid. The column was washed three times with 0.1% trifluoroacetic acid, and RC-101 was eluted with acetonitrile:water (60:40) in 0.1% trifluoroacetic acid. Samples were dried in a speed vacuum CentriVap concentrator (LabConco Corp., Kansas City, MO) and resuspended with 200 μL of Milli Q water for LC-MS/MS analysis. Each sample described in Table 1 originated two sets of samples: one labeled as supernatant and the second one labeled as cells.
Integrated electrospray ionization (ESI)-capillary reversed-phase columns (75 μm inner diameter × 360 μm outer diameter × 100 mm length) packed with 5 μm 300 Å pore size Jupiter C18 reversed-phase stationary phase (Phenomenex) were prepared, as previously described. Solvent flow was supplied by a nanoflow HPLC system (Ultimate 3000, Dionex Corporation, Sunnyvale, CA).

[2] = RC-101 solution / film control in water, detection by LC-MS/MS; format: physicochemical; details: 1:1 with water, 37°C, nanoLC-SRM MS, qualitative
Method: RC-101 100 μg/mL solutions were prepared by dissolving RC-101 in Milli Q water. RC-101 and placebo films were prepared by precasting a polymeric film solution into an 8-well-plate. The polymeric film solution was prepared as previously described by adding Milli Q water, PVA, and hydroxypropyl methyl cellulose (HPMC). The solution was then heated at 95°C for 20 minutes for complete dissolution of the polymers. After cooling, glycerin and RC-101 were added. Film solution (2.4 g) containing RC-101 was poured into each well of the 8-well plate. The plate was placed into a vacuum oven at 30 ± 2°C for 20 ± 4 h. All dried films were removed from the plates and stored at room temperature in PET/Aluminum foil pouches (Amcor Flexibles Healthcare Inc, Mundelein, IL) until further analysis. Placebo films were prepared in the same way without the addition of RC-101. […] For analytical purposes, films were dissolved in 1 mL of Milli Q water before addition to HVF.
as §1
At each time point, the sample was removed from the incubation chamber and centrifuged for 10 min at 10,000 rpm, at 4 ± C to separate the supernatant from cell pellet. Supernatant (100 μL) was added to microcentrifuge filters Ultracel YM-10 Microcon MWCO 10,000 (Millipore Corporation, Bedford, MA), which were pre-washed with Milli Q water to eliminate any trace of propylene glycol from the filters. Samples were centrifuged twice for 15 min at 8,500 rpm, at 4 ± C. The filtrate was collected and frozen at -80 ± C until further analysis. A solution of 3 M urea was added to the cell pellet (1:1 w/w) obtained from the first centrifugation, to lyse the cells. This mixture was vortexed three times for 30 sec, and then centrifuged for 10 min at 10,000 rpm, at 4 ± C. The supernatant obtained from the cell lysate was then added to microcentrifuge filters Ultracel YM-10 Microcon MWCO 10,000 pre-washed with Milli Q water. Samples were centrifuged twice for 15 min at 8,500 rpm, at 4 ± C. The filtrate was collected and frozen at -80 ± C until analysis.

Sequence: GICRCICGKGICRCICGR (bicyclic or more) [RC-101, cationic retrocyclin analog; circular 18-residue tetracyclic peptide with three cysteine disulfide bonds]
- effect of the folding change at pH 7 on bioactivity against HIV-1 (HIV-1): did not affect bioactivity
- difference in the peptide after incubation with frozen fluid versus fresh HVF ([1]; HVF stored at -80°C for 3 months, thawed, 1:1 with RC-101 100 μg/mL solution, 37°C, LC-MS/MS not quantitative): No detectable differences
- detection of RC-101 by LC-MS/MS ([1]; 0 h): +
- detection of RC-101 by LC-MS/MS ([1]; 2 h): +
- detection of RC-101 by LC-MS/MS ([1]; 6 h): +
- detection of RC-101 by LC-MS/MS ([1]; 12 h): +
- detection of RC-101 by LC-MS/MS ([1]; 24 h): +
- detection of RC-101 by LC-MS/MS ([1]; 48 h): +
- detection of RC-101 by LC-MS/MS ([2]; 0 h): +
- detection of RC-101 by LC-MS/MS ([2]; 2 h): +
- detection of RC-101 by LC-MS/MS ([2]; 6 h): +
- detection of RC-101 by LC-MS/MS ([2]; 12 h): +
- detection of RC-101 by LC-MS/MS ([2]; 24 h): +
- detection of RC-101 by LC-MS/MS ([2]; 48 h): +
- detection of RC-101 by LC-MS/MS ([2]; 72 h): +

— publication PMC3199744, “Preformulation and stability in biological fluids of the retrocyclin RC-101, a potential anti-HIV topical microbicide” (AIDS Research and Therapy, 2011)
